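Here, GI50 denotes the concentration required for 50% inhibition of growth. TGI marks complete inhibition of growth.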
How the values were obtained:
Assay in all cases: NCI tumour cell line growth inhibition, 384-well format
[1] = tested on: NCI-H522 lung
[2] = tested on: MALME-3M melanoma
[3] = tested on: MDA-MB-231 breast
[4] = tested on: M14 melanoma
[5] = tested on: SN12C renal
[6] = tested on: PC-3 prostate
[7] = tested on: HOP-92 NSCLC
[8] = tested on: NCI/ADR-RES ovarian
[9] = tested on: NCI-H23 lung
[10] = tested on: CAKI-1 renal
[11] = tested on: IGROV1 ovarian
[12] = tested on: NCI-H322M lung
[13] = tested on: COLO 205 colon
[14] = tested on: U251 glioblastoma
[15] = tested on: HOP-62 NSCLC
[16] = tested on: KM12 colon
[17] = tested on: MOLT-4 leukemia
[18] = tested on: NCI-H226 lung
[19] = tested on: DU-145 prostate
[20] = tested on: T-47D breast
[21] = tested on: RXF 393 renal
[22] = tested on: HCC-2998 colon
[23] = tested on: SK-MEL-5 melanoma
[24] = tested on: HT29 colon
[25] = tested on: SF-295 CNS
[26] = tested on: BT-549 breast
[27] = tested on: CCRF-CEM leukemia
[28] = tested on: A498 renal
[29] = tested on: A549 NSCLC
[30] = tested on: SF-539 CNS
[31] = tested on: TK-10 renal
[32] = tested on: SK-OV-3 ovarian
[33] = tested on: 786-0 renal
[34] = tested on: SK-MEL-28 melanoma
[35] = tested on: EKVX NSCLC
[36] = tested on: ACHN renal
[37] = tested on: SW-620 colon
[38] = tested on: OVCAR-4 ovarian
[39] = tested on: K-562 leukemia
[40] = tested on: MDA-MB-468 breast
[41] = tested on: OVCAR-3 ovarian
[42] = tested on: OVCAR-8 ovarian
[43] = tested on: UO-31 renal
[44] = tested on: UACC-62 melanoma
[45] = tested on: HS 578T breast
[46] = tested on: SNB-75 CNS
[47] = tested on: SF-268 CNS
[48] = tested on: LOX IMVI melanoma
[49] = tested on: MDA-MB-435 melanoma
[50] = tested on: HCT-15 colon
[51] = tested on: UACC-257 melanoma
[52] = tested on: MCF7 breast
[53] = tested on: HCT-116 colon
[54] = tested on: NCI-H460 NSCLC
[55] = tested on: SNB-19 CNS
[56] = tested on: RPMI-8226 leukemia
[57] = tested on: SR leukemia
[58] = tested on: HL-60(TB) leukemia
[59] = tested on: OVCAR-5 ovarian

Compound: Cc1cc(C(=O)NOCCO)c(Nc2ccc(I)cc2F)n(C)c1=O
- GI50 [1]: 33.2 µM
- TGI [1]: > 100 µM
- GI50 [2]: < 0.01 µM
- TGI [2]: < 0.01 µM
- GI50 [3]: < 0.01 µM
- TGI [3]: 0.138 µM
- GI50 [4]: < 0.01 µM
- TGI [4]: < 0.01 µM
- GI50 [5]: < 0.01 µM
- TGI [5]: 48.7 µM
- GI50 [6]: > 100 µM
- TGI [6]: > 100 µM
- GI50 [7]: 0.0157 µM
- TGI [7]: 0.125 µM
- GI50 [8]: > 100 µM
- TGI [8]: > 100 µM
- GI50 [9]: < 0.01 µM
- TGI [9]: 0.0435 µM
- GI50 [10]: 0.012 µM
- TGI [10]: > 100 µM
- GI50 [11]: < 0.01 µM
- TGI [11]: > 100 µM
- GI50 [12]: < 0.01 µM
- TGI [12]: > 100 µM
- GI50 [13]: < 0.01 µM
- TGI [13]: 0.0132 µM
- GI50 [14]: 0.0391 µM
- TGI [14]: > 100 µM
- GI50 [15]: < 0.01 µM
- TGI [15]: > 100 µM
- GI50 [16]: < 0.01 µM
- TGI [16]: > 100 µM
- GI50 [17]: > 100 µM
- TGI [17]: > 100 µM
- GI50 [18]: 0.0389 µM
- TGI [18]: 94.4 µM
- GI50 [19]: 4.72 µM
- TGI [19]: > 100 µM
- GI50 [20]: > 100 µM
- TGI [20]: > 100 µM
- GI50 [21]: 0.0582 µM
- TGI [21]: > 100 µM
- GI50 [22]: < 0.01 µM
- TGI [22]: < 0.01 µM
- GI50 [23]: < 0.01 µM
- TGI [23]: > 100 µM
- GI50 [24]: < 0.01 µM
- TGI [24]: > 100 µM
- GI50 [25]: 65.7 µM
- TGI [25]: > 100 µM
- GI50 [26]: 20.4 µM
- TGI [26]: > 100 µM
- GI50 [27]: > 100 µM
- TGI [27]: > 100 µM
- GI50 [28]: 35.7 µM
- TGI [28]: > 100 µM
- GI50 [29]: 0.0118 µM
- TGI [29]: 74.2 µM
- GI50 [30]: 0.052 µM
- TGI [30]: > 100 µM
- GI50 [31]: 0.0521 µM
- TGI [31]: > 100 µM
- GI50 [32]: > 100 µM
- TGI [32]: > 100 µM
- GI50 [33]: 0.0446 µM
- TGI [33]: > 100 µM
- GI50 [34]: < 0.01 µM
- TGI [34]: < 0.01 µM
- GI50 [35]: 0.0243 µM
- TGI [35]: > 100 µM
- GI50 [36]: 22.2 µM
- TGI [36]: > 100 µM
- GI50 [37]: < 0.01 µM
- TGI [37]: > 100 µM
- GI50 [38]: > 100 µM
- TGI [38]: > 100 µM
- GI50 [39]: 0.0114 µM
- TGI [39]: > 100 µM
- GI50 [40]: 49.7 µM
- TGI [40]: > 100 µM
- GI50 [41]: 62.9 µM
- TGI [41]: > 100 µM
- GI50 [42]: 32 µM
- TGI [42]: > 100 µM
- GI50 [43]: 0.0404 µM
- TGI [43]: > 100 µM
- GI50 [44]: < 0.01 µM
- TGI [44]: < 0.01 µM
- GI50 [45]: 0.0264 µM
- TGI [45]: > 100 µM
- GI50 [46]: 0.18 µM
- TGI [46]: > 100 µM
- GI50 [47]: > 100 µM
- TGI [47]: > 100 µM
- GI50 [48]: < 0.01 µM
- TGI [48]: 0.116 µM
- GI50 [49]: < 0.01 µM
- TGI [49]: > 100 µM
- GI50 [50]: 0.145 µM
- TGI [50]: > 100 µM
- GI50 [51]: < 0.01 µM
- TGI [51]: < 0.01 µM
- GI50 [52]: > 100 µM
- TGI [52]: > 100 µM
- GI50 [53]: < 0.01 µM
- TGI [53]: 0.121 µM
- GI50 [54]: < 0.01 µM
- TGI [54]: > 100 µM

Compound: Cn1cc(-c2[nH]c3cc(NC(=O)[C@H](N)C4CCCCC4)cc4c3c2C=NNC4=O)cn1
- GI50 [1]: 0.219 µM
- TGI [1]: 0.627 µM
- GI50 [2]: 0.781 µM
- TGI [2]: 17.4 µM
- GI50 [3]: 0.599 µM
- TGI [3]: 9.62 µM
- GI50 [4]: 0.195 µM
- TGI [4]: 0.402 µM
- GI50 [5]: 0.2 µM
- TGI [5]: 0.856 µM
- GI50 [6]: 0.768 µM
- TGI [6]: 13.4 µM
- GI50 [7]: 0.111 µM
- TGI [7]: 5.43 µM
- GI50 [8]: 4.97 µM
- TGI [8]: 23.1 µM
- GI50 [9]: 0.276 µM
- TGI [9]: 1.74 µM
- GI50 [10]: 0.531 µM
- TGI [10]: 12.4 µM
- GI50 [11]: 0.275 µM
- TGI [11]: 0.96 µM
- GI50 [12]: 0.198 µM
- TGI [12]: 0.894 µM
- GI50 [13]: 0.489 µM
- TGI [13]: 1.71 µM
- GI50 [14]: 0.32 µM
- TGI [14]: 1.52 µM
- GI50 [15]: 0.203 µM
- TGI [15]: 0.483 µM
- GI50 [55]: 0.299 µM
- TGI [55]: 1.09 µM
- GI50 [16]: 0.466 µM
- TGI [16]: 8.76 µM
- GI50 [17]: 0.201 µM
- TGI [17]: 0.347 µM
- GI50 [18]: 0.636 µM
- TGI [18]: 3.95 µM
- GI50 [19]: 0.359 µM
- TGI [19]: 12.4 µM
- GI50 [20]: 12.2 µM
- TGI [20]: 24.7 µM
- GI50 [21]: 0.211 µM
- TGI [21]: 0.689 µM
- GI50 [22]: 0.042 µM
- TGI [22]: 0.227 µM
- GI50 [23]: 0.175 µM
- TGI [23]: 0.407 µM
- GI50 [56]: 1.92 µM
- TGI [56]: 3.37 µM
- GI50 [24]: 1.03 µM
- TGI [24]: 2.58 µM
- GI50 [25]: 0.339 µM
- TGI [25]: 2.3 µM
- GI50 [26]: 0.152 µM
- TGI [26]: 0.362 µM
- TGI [57]: 0.0272 µM
- GI50 [28]: 0.0916 µM
- TGI [28]: 0.277 µM
- GI50 [29]: 4.66 µM
- TGI [29]: 17.3 µM
- GI50 [30]: 0.0381 µM
- TGI [30]: 0.156 µM
- GI50 [31]: 0.222 µM
- TGI [31]: 0.515 µM
- GI50 [34]: 0.761 µM
- TGI [34]: 16.4 µM
- GI50 [35]: 0.538 µM
- TGI [35]: 11.4 µM
- GI50 [36]: 0.314 µM
- TGI [36]: 0.954 µM
- GI50 [38]: 0.0296 µM
- TGI [38]: 0.0939 µM
- GI50 [40]: 0.186 µM
- TGI [40]: 0.426 µM
- GI50 [41]: 0.0496 µM
- TGI [41]: 0.209 µM
- GI50 [42]: 0.153 µM
- TGI [42]: 0.359 µM
- GI50 [58]: 0.204 µM
- TGI [58]: 0.353 µM
- GI50 [44]: 0.486 µM
- TGI [44]: 18.2 µM
- GI50 [45]: 0.191 µM
- TGI [45]: 0.847 µM
- GI50 [46]: 0.506 µM
- TGI [46]: 2.99 µM
- GI50 [47]: 0.169 µM
- TGI [47]: 10.9 µM
- GI50 [48]: 0.312 µM
- TGI [48]: 1.06 µM
- GI50 [49]: 0.166 µM
- TGI [49]: 0.34 µM
- GI50 [50]: 2.72 µM
- TGI [50]: 9.18 µM
- GI50 [51]: 1.42 µM
- TGI [51]: 6.26 µM
- GI50 [59]: 0.326 µM
- TGI [59]: 0.953 µM
- GI50 [52]: 0.176 µM
- TGI [52]: 12.7 µM
- GI50 [53]: 0.427 µM
- TGI [53]: 6.28 µM
- GI50 [54]: 3.09 µM
- TGI [54]: 11.1 µM

From PubChem BioAssay (NCI)
